Measurements taken from patent publication US9255100B2 (BAYER INTELLECTUAL PROPERTY GMBH, priority 2010, dated 2016).

What was measured:
[1] = test system: Hepatocytes from Han Wistar rats; experiment: In vitro metabolic stability in rat hepatocytes (calculation of hepatic in vivo blood clearance and Fmax); format: in vitro ADME; conditions: for Fmax [%]: maximal oral bioavailability calculated from half-life in rat hepatocytes, 1 μM test compound
Description: Investigation of In Vitro Metabolic Stability in Rat Hepatocytes (Including Calculation of Hepatic In Vivo Blood Clearance (CL))
Hepatocytes from Han Wistar rats were isolated via a 2-step perfusion method. After perfusion, the liver was carefully removed from the rat: the liver capsule was opened and the hepatocytes were gently shaken out into a Petri dish with ice-cold WME. The resulting cell suspension was filtered through sterile gaze in 50 ml falcon tubes and centrifuged at 50×g for 3 min at room temperature. The cell pellet was resuspended in 30 ml WME and centrifuged through a Percoll® gradient for 2 times at 100×g. The hepatocytes were washed again with Williams' medium E (WME) and resuspended in medium containing 5% FCS. Cell viability was determined by trypan blue exclusion.
For the metabolic stability assay liver cells were distributed in WME containing 5% FCS to glass vials at a density of 1.0×10^6 vital cells/ml. The test compound was added to a final concentration of 1 μM. During incubation, the hepatocyte suspensions were continuously shaken and aliquots were taken at 2, 8, 16, 30, 45 and 90 min, to which equal volumes of cold methanol were immediately added. Samples were frozen at −20° C. over night, after subsequently centrifuged for 15 minutes at 3000 rpm and the supernatant was analyzed with an Agilent 1200 HPLC-system with LCMS/MS detection.
The half-life of a test compound was determined from the concentration-time plot. From the half-life the intrinsic clearances were calculated. Together with the additional parameters liver blood flow, amount of liver cells in vivo and in vitro. The hepatic in vivo blood clearance (CL) and the maximal oral bioavailability (Fmax) was calculated. The following parameter values were used: Liver blood flow—4.2 L/h/kg rat; specific liver weight—32 g/kg rat body weight; liver cells in vivo—1.1×10^8 cells/g liver, liver cells in vitro—0.5×10^6/ml.

[2] = biological target: T1, N-terminally GST-tagged human full length recombinant Mps-1 kinase (Homo sapiens, UniProt P33981); experiment: Mps-1 kinase assay (TR-FRET); format: biochemical; conditions: Mps1 IC50 [nM], 10 μM ATP, 1 μM peptide substrate, 60 min at 22° C.
T1 construct: N-terminally GST-tagged human full length recombinant Mps-1 kinase; purchased Invitrogen, Karslruhe, Germany PV4071
T1 sequence (P33981 1-857): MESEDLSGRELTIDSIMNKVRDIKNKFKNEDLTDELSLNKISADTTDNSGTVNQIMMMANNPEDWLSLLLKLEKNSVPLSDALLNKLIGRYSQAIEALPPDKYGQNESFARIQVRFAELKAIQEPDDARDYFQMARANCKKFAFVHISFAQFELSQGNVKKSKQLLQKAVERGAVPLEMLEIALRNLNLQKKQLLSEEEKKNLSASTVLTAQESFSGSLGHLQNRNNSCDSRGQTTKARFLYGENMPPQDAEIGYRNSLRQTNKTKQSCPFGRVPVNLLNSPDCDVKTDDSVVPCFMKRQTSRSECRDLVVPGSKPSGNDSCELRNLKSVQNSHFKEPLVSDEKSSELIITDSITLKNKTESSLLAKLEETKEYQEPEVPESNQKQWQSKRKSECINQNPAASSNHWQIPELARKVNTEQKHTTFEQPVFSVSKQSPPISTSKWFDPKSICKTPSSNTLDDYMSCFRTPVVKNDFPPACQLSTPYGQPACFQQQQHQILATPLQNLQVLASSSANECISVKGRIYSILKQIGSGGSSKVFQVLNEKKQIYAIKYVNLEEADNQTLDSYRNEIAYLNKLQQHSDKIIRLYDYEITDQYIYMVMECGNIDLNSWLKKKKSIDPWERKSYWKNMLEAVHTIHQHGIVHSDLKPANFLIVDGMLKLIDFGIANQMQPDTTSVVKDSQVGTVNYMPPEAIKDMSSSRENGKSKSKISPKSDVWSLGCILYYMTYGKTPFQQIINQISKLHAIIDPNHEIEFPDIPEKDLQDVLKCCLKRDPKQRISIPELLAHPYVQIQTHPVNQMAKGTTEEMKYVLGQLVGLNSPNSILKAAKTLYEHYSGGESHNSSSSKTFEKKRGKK
How it was run: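 Inhibition of Mps-1 (N-terminal GST fusion, full length) toward a biotinylated peptide is read as Eu-to-XLent TR-FRET. Enzyme level, around 1 nM final, follows lot activity.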

Structure (SMILES) | Fmax [%] [1] [%] | increase of metabolic stability ([1]; relative increase of Fmax (rat hepatocytes) against the comparison compound of the same table) [%] | IC50 [2] [nM]
Cc1cc(-c2cnc3c(NCCC(F)(F)F)cc(Oc4cccc(F)c4)nn23)ccc1C(=O)NC1CC1 [Example 80, N-cyclopropyl-4-{6-(3-fluorophenoxy)-8-[(3,3,3-trifluoropropyl)amino]imidazo[1,2-b]pyridazin-3-yl}-2-methylbenzamide] | 56 | 81 | 0.2
CNc1cc(Oc2cccc(F)c2)nn2c(-c3ccc(C(=O)NC4CC4)c(C)c3)cnc12 [Example 510, N-cyclopropyl-4-[6-(3-fluoro-phenoxy)-8-(methylamino)imidazo[1,2-b]pyridazin-3-yl]-2-methylbenzamide] | 39 | – | 0.1
Cc1cc(-c2cnc3c(NCCS(C)(=O)=O)cc(Oc4cccc(F)c4F)nn23)ccc1C(=O)NC1CC1 [Example 516, N-cyclopropyl-4-[6-(2,3-difluorophenoxy)-8-{[2-(methylsulfonyl)ethyl]amino}imidazo[1,2-b]pyridazin-3-yl]-2-methylbenzamide] | 69 | – | 0.3
Cc1ccc(F)cc1Oc1cc(NCC(C)(C)O)c2ncc(-c3ccc(C(=O)NC4CC4)c(C)c3)n2n1 [Example 391, N-cyclopropyl-4-{6-(5-fluoro-2-methylphenoxy)-8-[(2-hydroxy-2-methylpropyl)amino]imidazo[1,2-b]pyridazin-3-yl}-2-methylbenzamide] | 47 | – | 0.1
COc1ccc(Oc2cc(NCC3CCOCC3)c3ncc(-c4ccc(C(=O)NC5CC5)c(C)c4)n3n2)c(F)c1 [Example 445, N-cyclopropyl-4-{6-(2-fluoro-4-methoxyphenoxy)-8-[(tetrahydro-2H-pyran-4-ylmethyl)amino]imidazo[1,2-b]pyridazin-3-yl}-2-methylbenzamide] | 61 | – | 0.2
Cc1cc(-c2cnc3c(NCCC(F)(F)F)cc(Oc4cccc(F)c4)nn23)ccc1C(=O)NC1(C)CC1 [Example 461, 4-{6-(3-fluorophenoxy)-8-[(3,3,3-trifluoropropyl)amino]imidazo[1,2-b]pyridazin-3-yl}-2-methyl-N-(1-methylcyclopropyl)benzamide] | 75 | – | 0.2
Cc1cc(-c2cnc3c(NCC4CCN(C)CC4)cc(Oc4cccc(F)c4F)nn23)ccc1C(=O)NC1CC1 [Example 526, N-cyclopropyl-4-[6-(2,3-difluorophenoxy)-8-{[(1-methylpiperidin-4-yl)-methyl]amino}imidazo[1,2-b]pyridazin-3-yl]-2-methylbenzamide] | 50 | – | 0.1
COCCNc1cc(Oc2cccc(F)c2)nn2c(-c3ccc(C(=O)NC4CC4)c(C)c3)cnc12 [Example 492, N-cyclopropyl-4-{6-(3-fluoro-phenoxy)-8-[(2-methoxyethyl)amino]imidazo[1,2-b]pyridazin-3-yl}-2-methylbenzamide] | 42 | – | 0.1
Cc1ccc(F)cc1Oc1cc(NCCC(F)(F)F)c2ncc(-c3ccc(C(=O)NC4CC4)c(C)c3)n2n1 [Example 390, N-cyclopropyl-4-{6-(5-fluoro-2-methylphenoxy)-8-[(3,3,3-trifluoropropyl)amino]imidazo[1,2-b]pyridazin-3-yl}-2-methylbenzamide] | 55 | – | 0.1
Cc1cc(-c2cnc3c(NCC4CCOCC4)cc(Oc4cccc(F)c4)nn23)ccc1C(=O)NC1CC1 [Example 323, N-cyclopropyl-4-{6-(3-fluorophenoxy)-8-[(tetra-hydro-2H-pyran-4-yl-methyl)amino]imidazo[1,2-b]pyridazin-3-yl}-2-methylbenzamide] | 31 | – | 0.2
